The values that follow come from PubChem BioAssay AID1996.

The structures appear in SMILES notation. Converted amounts (≈) assume the structure as drawn.

For this series the following is noted: buffer; pH 7.4; 200.0 µM.
`Cc1cc(=O)oc2cc(NC(=O)c3ccc(OC(F)F)cc3)ccc12` had a solubility (kinetic) of 1 µg/mL (≈ 2.9 µM).
In the case of `CN(C)C(CNc1ccc(C(F)(F)F)cn1)c1ccccc1` (stereo unspecified) it was over 46.4 µg/mL.
In the case of `COc1ccc(Nc2nc(OC)nc(OC)n2)cc1` it was over 39.3 µg/mL; in that of `O=C(CSc1ncccn1)NC1CCCc2ccccc21` (stereo unspecified), 42.5 µg/mL (≈ 142 µM).
In the case of `C=Cc1ccc(Cn2c(C(=O)O)c(C=O)c3ccccc32)cc1` it was over 45.8 µg/mL; in that of `CCOn1c(=O)c(-c2ccccc2)[n+]([O-])c2ccccc21`, over 42.3 µg/mL.
Take `CC(C(=O)N(C)C1CCCCC1)N1CCC(C(N)=O)CC1` (stereo unspecified): the kinetic solubility turned out to be 43.1 µg/mL (≈ 146 µM).
The result for `Cc1ccc(Cl)cc1NC(C#N)c1ccccc1` (stereo unspecified) reads 6.5 µg/mL (≈ 25.3 µM); that for `O=C1CSc2ccc(C(=O)O)cc2N1`, over 31.4 µg/mL; that for `Cc1ccc(S(=O)(=O)CCC(=O)NCCc2ccccc2)cc1`, over 49.7 µg/mL.
In the case of `COc1cc([N+](=O)[O-])ccc1NC(=O)Nc1cccnc1` it was 1 µg/mL (≈ 3.47 µM).
In turn, `Cc1cc(=O)n(C)c2ccccc12` yielded a solubility (kinetic) of over 26 µg/mL.
The result for `O=C1CNC(=S)N1Cc1ccc(Cl)cc1` reads over 36.1 µg/mL; that for `Cc1ccc(S(=O)(=O)CCN2CCN(c3ccccc3)CC2)cc1`, 45.7 µg/mL (≈ 133 µM); that for `CC1CCCCC1NC(=O)c1ccncc1` (stereo unspecified), over 32.7 µg/mL.
The result for `COCc1cc(C)nc(SCc2ccccc2Cl)c1C#N` reads 0.3 µg/mL (≈ 0.941 µM); that for `Cc1ccc(S(=O)(=O)N2CC[C@@H]2C(=O)O)cc1`, over 38.3 µg/mL; that for `O=C(COC(=O)CCC(=O)c1ccc(F)cc1)Nc1ccc(Cl)cn1`, 21.1 µg/mL (≈ 57.8 µM).
The result for `O=C(Nc1ccccc1)c1cc([N+](=O)[O-])ccc1Cl` reads 3.1 µg/mL (≈ 11.2 µM); that for `Cc1cc(OCC(=O)OCC(=O)Nc2cc(S(=O)(=O)N3CCOCC3)ccc2Cl)ccc1Cl`, 16.2 µg/mL (≈ 31.3 µM).
In the case of `CCn1c(/C=C/c2ccccc2Cl)nc2ccccc2c1=O`, the solubility (kinetic) turned out to be 1.7 µg/mL (≈ 5.47 µM).
In turn, `N#Cc1c(N2CCCC2)nsc1-c1ccccc1` came in with a solubility (kinetic) of 0.4 µg/mL (≈ 1.57 µM).
In the case of `C[C@H](NC(=O)c1ccccc1)C(=O)OCC(=O)Nc1sccc1C(N)=O` it was over 56.3 µg/mL; in that of `CC(C)NC(=O)C1c2ccccc2Oc2ccccc21`, 1.1 µg/mL (≈ 4.11 µM).
In the case of `S=C(Nc1ccc(Oc2ccccc2)cc1)N1CCOCC1` it was 42.8 µg/mL (≈ 136 µM); in that of `Cc1cccc2[nH]c(CN(C)Cc3nc(CC4CC4)no3)nc12`, 45.9 µg/mL (≈ 147 µM); in that of `Cl.O=C(NCCN1CCCC1)c1ccc(Br)cc1`, over 50 µg/mL.
Take `Cc1ccccc1NC(=O)CCC(=O)OCC(=O)c1cccc([N+](=O)[O-])c1`: the kinetic solubility is over 55.6 µg/mL.
In the case of `O=C(OCC(=O)N1CCN(c2ccccc2)CC1)c1ccc([N+](=O)[O-])s1` it was 7.1 µg/mL (≈ 18.9 µM).
Consider `CCc1cc(C(=O)N2CCCc3ccccc32)sc1C`, for which the kinetic solubility was found to be 9.7 µg/mL (≈ 34 µM).
In the case of `c1cn(CCCNC2CCCCCCC2)cn1` it was 23.9 µg/mL (≈ 102 µM).
Compound `CSCC(=O)NCC1(N(C)Cc2ccccc2)Cc2ccccc2C1` gave a solubility (kinetic) of over 53.2 µg/mL.
The result for `CCOC(=O)c1ccc(S(=O)(=O)N2CCN(CCc3ccncc3)CC2)cc1` reads over 60.5 µg/mL; that for `CC1(C)CC(NC(=O)C(=O)NCCc2ccccc2)CC(C)(C)N1`, over 49.7 µg/mL; that for `O=C(CCCN1CCC(O)(c2ccc(Cl)cc2)CC1)c1ccc(F)cc1`, 23.5 µg/mL (≈ 62.5 µM).
`Cc1cccc(-c2noc(CNC(=O)c3ccco3)n2)c1`: the solubility (kinetic) was 42.5 µg/mL (≈ 150 µM).
The result for `O=C(COC(=O)c1c(F)cccc1F)NCc1cccs1` reads over 46.7 µg/mL.
The result for `O=C(NC1(Cc2ccc(O)cc2)CCCCC1)c1ccccc1` reads 44.9 µg/mL (≈ 145 µM); that for `O=c1c2ccccc2nc(-c2ccccc2)n1-c1ccccc1O`, 38.3 µg/mL (≈ 122 µM).
The result for `CCc1ccc(C(=O)Nc2ccc(C)c(NS(C)(=O)=O)c2)cc1` reads 39.7 µg/mL (≈ 119 µM).
Regarding `O=C(Nc1ccc(O)cc1C(=O)O)c1cccs1`, the kinetic solubility is over 39.5 µg/mL.
In the case of `O=[N+]([O-])c1cc(C(F)(F)F)ccc1NCCc1ccncc1` it was 1.6 µg/mL (≈ 5.14 µM); in that of `O=C1NC2(CCCCCC2)C(=O)N1Cc1ccccc1F`, 26 µg/mL (≈ 89.6 µM).
The compound `O=C(CSCc1ccc(Br)cc1)N1CCCC1` had a solubility (kinetic) of over 47.1 µg/mL.
The result for `CSc1ncccc1C(=O)OCc1cccc([N+](=O)[O-])c1` reads under 0.3 µg/mL.
With `O=C(Oc1ccc(Oc2ccccc2)cc1)N1CCC(O)CC1`, the kinetic solubility turned out to be 34.9 µg/mL (≈ 111 µM).
In the case of `Cc1ccc(N2C(=O)c3ccccc3C2C(=O)c2ccc(C)c(C)c2O)cc1` (stereo unspecified) it was 10.6 µg/mL (≈ 28.5 µM); in that of `COCCNC(=O)C(C)OC(=O)C1=Cc2ccccc2OC1` (stereo unspecified), over 45.8 µg/mL; in that of `Cc1ccc(N2C(=O)CN(Cc3cccs3)C2=S)cc1C`, under 0.3 µg/mL.
For `Cc1cc(NC(=O)CS(=O)(=O)c2c[nH]c3ccccc23)no1`, the solubility (kinetic) was over 47.9 µg/mL.
In the case of `CCc1ccc(NC(=O)c2ccccc2SC)cc1` it was 2.4 µg/mL (≈ 8.84 µM).
Turning to `CSc1nc2cc(Oc3cccc(Cl)c3Cl)c(Cl)cc2[nH]1`, the solubility (kinetic) amounted to 0.5 µg/mL (≈ 1.39 µM).
In turn, `O=[N+]([O-])c1ccc(S(=O)(=O)NCCc2ccncc2)cc1` showed a kinetic solubility of 12.8 µg/mL (≈ 41.6 µM).
The compound `O=C(COC(=O)c1cncc(Br)c1)NC1CCCCC1` had a kinetic solubility of 46.6 µg/mL (≈ 137 µM). This solubility kinetic is about 3.6-fold higher than that of the compound before.
In the case of `O=C(NCc1ccncc1)C(=O)Nc1nccs1` it was over 39.3 µg/mL; in that of `Nc1cc(=O)[nH]c(SCC(=O)N2CCCC2)n1`, over 38.1 µg/mL; in that of `CN1CCCC(OC(=O)c2ccccc2Br)C1.Cl` (stereo unspecified), over 50.2 µg/mL.
The result for `Cc1cccc(OCC(=O)NC2CCCC2)c1` reads 31.5 µg/mL (≈ 135 µM); that for `CSc1nc2sc3c(c2c(=O)n1CC(C)C)CC(C)(C)OC3`, under 0.4 µg/mL; that for `CNC(=O)Nc1ccc2nc(C)oc2c1`, over 30.8 µg/mL.
For the compound `O=C(NCCc1ccccc1)c1ccc2[nH]c(=O)c(=O)[nH]c2c1`, the solubility (kinetic) was over 46.4 µg/mL.
In the case of `COc1cccc(OCC(O)CNC(C)c2ccccc2)c1.Cl` (stereo unspecified) it was 49.1 µg/mL; in that of `Cc1cc(S(=O)(=O)NCCCn2ccnc2)c(C)cc1Cl`, over 49.2 µg/mL; in that of `Nc1c(Br)c(=O)[nH]c(=O)n1-c1ccc(F)cc1`, 25.3 µg/mL (≈ 84.3 µM).
Compound `COc1ccc(Nc2cc(C)c3cc([N+](=O)[O-])ccc3n2)cc1` yielded a solubility (kinetic) of under 0.2 µg/mL.
As to `CCC(C(=O)N1CCN(c2ncccn2)CC1)c1ccccc1` (stereo unspecified), the kinetic solubility amounted to 41.7 µg/mL (≈ 134 µM).
The result for `Nc1nonc1C(=O)NCCNc1ccc([N+](=O)[O-])cc1` reads 3.8 µg/mL (≈ 13 µM).
The result for `CC(=O)c1ccc(NC(=O)c2cc3ccccc3o2)cc1` reads 1 µg/mL (≈ 3.58 µM).
Take `COc1ccc(C(=O)Nc2cc(C(=O)O)cc(C(=O)O)c2)cc1Cl`: the solubility (kinetic) is over 52.5 µg/mL.
In the case of `NS(=O)(=O)c1ccc(SCc2ccccc2)nc1` it was 10.4 µg/mL (≈ 37.1 µM); in that of `COc1cc(OC)c(C(=O)OCC(=O)c2ccc3c(c2)NC(=O)CO3)cc1OC`, 4.9 µg/mL (≈ 12.2 µM); in that of `O=C(Nc1ccccc1F)c1c[nH]c(=O)[nH]c1=O`, 5.5 µg/mL (≈ 22.1 µM).
The result for `C=CCNC(=S)NNC(=O)C(CC(C)C)CC(C)O` (stereo unspecified) reads over 43.1 µg/mL; that for `COC(=O)c1sc(SC)c2c1CC(C)(C)C/C2=N/O`, under 0.6 µg/mL.
As to `O=C(COc1ccc2ccccc2c1)Nc1cccnc1Cl`, the kinetic solubility is under 0.3 µg/mL.
In the case of `Cc1nn(CC(=O)NC(C)c2ccccc2)c(C)c1[N+](=O)[O-]` (stereo unspecified) it was over 45.3 µg/mL.
The result for `Cl.c1csc(CNCc2ccncc2)c1` reads over 36.1 µg/mL; that for `O=C1CNC(=S)N1CCOc1ccccc1`, 30.4 µg/mL (≈ 129 µM); that for `CN(CCC#N)Cc1cc(=O)oc2ccc3ccccc3c12`, 33.5 µg/mL (≈ 115 µM).
In the case of `CCn1c(C)cc(O)c(C(=O)Nc2cccc(Cl)c2)c1=O` it was under 0.3 µg/mL; in that of `COc1ccc(CCNC(=S)Nc2ccccc2)cc1`, 41.1 µg/mL (≈ 144 µM).
Consider `CCc1c(C(=O)Nc2ccc(C)c(C)c2)[nH]c(C)c1C(C)=O`, for which the kinetic solubility was 3 µg/mL (≈ 10.1 µM).
In the case of `CCN(CC)Cc1ccc(OC)c(Cl)c1.Cl` it was over 39.6 µg/mL; in that of `COc1ccc(CCNc2ccc([N+](=O)[O-])cn2)cc1`, 7.1 µg/mL (≈ 26 µM); in that of `Cn1cnc2cc(NCc3ccccc3Cl)ccc21`, 34.7 µg/mL (≈ 128 µM).
In the case of `Cl.Fc1ccc(CNC2CN3CCC2CC3)cc1` (stereo unspecified) it was over 46.1 µg/mL.
In the case of `CCc1ccccc1N1CC(C(=O)Nc2cc(C)on2)CC1=O` (stereo unspecified) it was over 47 µg/mL; in that of `Cc1cc(N/C=C(\C#N)S(=O)(=O)c2ccc(Cl)cc2)nc(C)n1`, 12.9 µg/mL (≈ 37 µM); in that of `CCN(CC(=O)Nc1c(F)cccc1F)C(=O)Cc1ccccc1`, over 49.9 µg/mL.
With `COc1cc2c(cc1OC)CC1(CCCCC1)N=C2.Cl`, the solubility (kinetic) is over 44.4 µg/mL.
Regarding `CC(C)Oc1cc(C(=O)NC2CCCCC2)c2ccccc2n1`, the kinetic solubility came out at 1.4 µg/mL (≈ 4.48 µM).
In the case of `O=C1C2C3CC(C2C(=O)N1c1cccc(Cl)c1)[C@H](O)C3O` (stereo partly specified) it was over 46.2 µg/mL.
The result for `CCOC(=O)CN1C(=O)C(=O)N(Cc2ccccc2)C1=O` reads over 43.5 µg/mL; that for `Cc1ccc(OCC(=O)Nc2ccncc2)c(C)c1`, 32.1 µg/mL (≈ 125 µM).
The result for `Cc1cc(=O)[nH]c(-c2ccc(C(F)(F)F)cc2)n1` reads over 38.1 µg/mL; that for `OC(CNCc1cccs1)c1ccccc1` (stereo unspecified), over 35 µg/mL.
In the case of `O=C(NCCc1cccc(Cl)c1)c1cccs1`, the solubility (kinetic) is over 39.9 µg/mL.
The result for `CN(C(=O)c1cccc(S(=O)(=O)NCc2ccccc2)c1)C1CCCCC1` reads 50.7 µg/mL (≈ 131 µM); that for `Cl.O=C(NN1C(=O)CSC1=S)c1cccnc1`, over 43.5 µg/mL.
Turning to `N#Cc1nc(-c2ccco2)oc1NCc1ccccc1Cl`, the solubility (kinetic) came out at 1.1 µg/mL (≈ 3.67 µM).
As to `O=C(CS(=O)(=O)Cc1ccccc1)NCc1ccccc1Cl`, the kinetic solubility is over 50.7 µg/mL.
In the case of `CC(=O)c1ccccc1OCCCOc1cccc2cccnc12` it was 45.8 µg/mL (≈ 143 µM); in that of `O=C(Nc1ccccc1)c1ccco1`, over 28.1 µg/mL; in that of `O=C(NC(=S)NNC(=O)c1cccs1)c1ccccc1`, over 45.8 µg/mL.
`CCc1ccc(N2CN(CCc3ccccc3)CNC2=S)cc1` displayed a kinetic solubility of 1.6 µg/mL (≈ 4.92 µM).
The result for `CC(=O)c1ccc(NC(=S)N2CCCC(C(F)(F)F)C2)cc1` (stereo unspecified) reads 47.6 µg/mL (≈ 144 µM).
